According to patent US20200361895A1, “NOVEL SULFONAMIDE CARBOXAMIDE COMPOUNDS” (Inflazome Limited, priority 2017, published 2020):
Counter-ions that a name gives are not always drawn.

How the values were obtained:
NLRP3 [1] = target: T1, NLRP3 (Homo sapiens, UniProt Q96P20); test: THP-1 cells pyroptosis assay (LPS + nigericin, resazurin readout; THP IC50); format: cell-based; parameters: Seed THP-1 cells (25,000 cells/well) containing 1.0 μg/ml LPS in 40 μl of RPMI medium; host or cells: THP-1 cells
T1 sequence (Q96P20 whole entry): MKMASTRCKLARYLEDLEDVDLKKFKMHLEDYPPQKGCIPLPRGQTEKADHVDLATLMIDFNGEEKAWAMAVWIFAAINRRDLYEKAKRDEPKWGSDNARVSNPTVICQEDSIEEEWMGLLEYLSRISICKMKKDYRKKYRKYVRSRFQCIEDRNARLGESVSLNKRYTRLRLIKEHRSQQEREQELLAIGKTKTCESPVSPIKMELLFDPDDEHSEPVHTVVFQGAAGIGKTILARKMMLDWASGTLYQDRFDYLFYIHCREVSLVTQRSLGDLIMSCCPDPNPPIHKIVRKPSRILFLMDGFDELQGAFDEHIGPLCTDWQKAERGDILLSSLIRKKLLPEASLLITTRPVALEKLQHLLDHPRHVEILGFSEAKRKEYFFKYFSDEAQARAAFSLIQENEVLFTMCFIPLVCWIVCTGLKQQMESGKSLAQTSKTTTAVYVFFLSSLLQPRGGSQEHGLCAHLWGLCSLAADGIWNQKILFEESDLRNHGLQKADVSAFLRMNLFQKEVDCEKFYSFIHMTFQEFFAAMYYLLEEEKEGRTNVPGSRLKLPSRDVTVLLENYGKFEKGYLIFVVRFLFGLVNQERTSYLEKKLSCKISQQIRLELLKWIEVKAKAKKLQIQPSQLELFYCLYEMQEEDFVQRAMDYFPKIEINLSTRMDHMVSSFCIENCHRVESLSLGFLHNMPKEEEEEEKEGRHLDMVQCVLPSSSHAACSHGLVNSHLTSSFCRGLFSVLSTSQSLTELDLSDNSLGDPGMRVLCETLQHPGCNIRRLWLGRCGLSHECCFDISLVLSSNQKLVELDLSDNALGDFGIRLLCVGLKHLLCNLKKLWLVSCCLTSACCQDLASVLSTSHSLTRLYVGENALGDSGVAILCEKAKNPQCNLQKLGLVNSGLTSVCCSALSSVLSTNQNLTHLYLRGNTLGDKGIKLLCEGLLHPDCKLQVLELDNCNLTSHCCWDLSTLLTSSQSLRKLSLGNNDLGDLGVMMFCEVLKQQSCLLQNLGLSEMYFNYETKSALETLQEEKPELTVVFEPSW
How it was run: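 IC50 from 4-parameter fit of resazurin fluorescence (100 μM, 1-2 hrs), reflecting surviving cells after pyroptosis. LPS-primed (1 μg/ml) THP-1 cells in FBS-free RPMI got compound for 3 hrs at 37° C (top 10 μM, half-log, 8 points), then nigericin 5 μM for 1 hr.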

NLRP3 [2] = target: T1, NLRP3; test: Human whole blood IL1β release assay (LPS + nigericin, AlphaLisa IL-1β; HWB IC50); format: cell-based; parameters: Human whole blood in Li-heparin tubes was obtained from healthy donors from a volunteer donor panel; from tissue; host or cells: human whole blood from healthy donors; settings: IL-1β release
Experimental: For systemic delivery, the ability to inhibit NLRP3 when the compounds are present within the bloodstream is of great importance. For this reason, the NLRP3 inhibitory activity of a number of compounds in human whole blood was investigated in accordance with the following protocol.
Human whole blood in Li-heparin tubes was obtained from healthy donors from a volunteer donor panel. • 1. Plate out 80 μl of whole blood containing 1 μg/ml of LPS in 96-well, clear bottom cell culture plate (Corning #3585) • 2. Add 10 μl compound (8 points half-log dilution with 10 μM top dose) or vehicle (DMSO 0.1% FAC) to the appropriate wells • 3. Incubate for 3 hrs at 37° C., 5% CO2 • 4. Add 10 μl nigericin (Sigma #N7143) (10 μM FAC) to all wells • 5. Incubate for 1 hr at 37° C., 5% CO2 • 6. At the end of the incubation period, spin plates at 300×g for 5 mins to pellet cells and remove 20 μl of supernatant and add to 96-well v-bottom plates for IL-1β analysis (note: these plates containing the supernatants can be stored at −80° C. to be analysed at a later date) • 7. IL-1β was measured according to the manufacturer protocol (Perkin Elmer-AlphaLisa IL-1 Kit AL220F-5000) • 8. IC50 data is fitted to a non-linear regression equation (log inhibitor vs response-variable slope 4-parameters)

IC50 (NLRP3 [1]) [µM] | IC50 (NLRP3 [2]) [µM] | Structure (SMILES)
≤ 1 | ≤ 5 | CC(C)c1cc(F)cc(-c2ccccc2)c1NC(=O)NS(=O)(=O)c1cc(CN(C)C)n(C(C)C)n1 [Example 46, 5-((Dimethylamino)methyl)-N-((5-fluoro-3-isopropyl-[1,1′-biphenyl]-2-yl)carbamoyl)-1-isopropyl-1H-pyrazole-3-sulfonamide]
≤ 0.5 | ≤ 0.5 | CC(C)c1cc(F)cc(-c2ccnc(C#N)c2)c1NC(=O)NS(=O)(=O)c1cc(CN(C)C)n(C)n1 [Example 48, N-((2-(2-Cyanopyridin-4-yl)-4-fluoro-6-isopropylphenyl)carbamoyl)-5-((dimethylamino)methyl)-1-methyl-1H-pyrazole-3-sulfonamide]
≤ 0.5 | ≤ 0.5 | CCn1nc(S(=O)(=O)NC(=O)Nc2c(-c3ccnc(C#N)c3)cc(F)cc2C(C)C)cc1CN(C)C [Example 49, N-((2-(2-Cyanopyridin-4-yl)-4-fluoro-6-isopropylphenyl)carbamoyl)-5-((dimethylamino)methyl)-1-ethyl-1H-pyrazole-3-sulfonamide]
≤ 0.5 | ≤ 0.5 | COc1cc(-c2cc(F)cc(C(C)C)c2NC(=O)NS(=O)(=O)c2cc(C3(OC)COC3)n(C)n2)ccn1 [Example 52, N-((4-Fluoro-2-isopropyl-6-(2-methoxypyridin-4-yl)phenyl)carbamoyl)-5-(3-methoxyoxetan-3-yl)-1-methyl-1H-pyrazole-3-sulfonamide]
≤ 0.5 | ≤ 5 | COc1cc(-c2cc(F)cc(C(C)C)c2NC(=O)NS(=O)(=O)c2cn(C(C)C)cn2)ccn1 [Example 53, N-((4-Fluoro-2-isopropyl-6-(2-methoxypyridin-4-yl)phenyl)carbamoyl)-1-isopropyl-1H-imidazole-4-sulfonamide]
≤ 0.5 | ≤ 0.5 | COc1cc(-c2ccc3c(c2NC(=O)NS(=O)(=O)c2ccn(C(C)C)n2)CCC3)ccn1 [Example 56, 1-Isopropyl-N-((5-(2-methoxypyridin-4-yl)-2,3-dihydro-1H-inden-4-yl)carbamoyl)-1H-pyrazole-3-sulfonamide]
≤ 1 | ≤ 1 | CC(C)c1cc(F)cc(-c2cccnc2)c1NC(=O)NS(=O)(=O)c1ccn(CCN(C)C)n1 [Example 57, 1-(2-(Dimethylamino)ethyl)-N-((4-fluoro-2-isopropyl-6-(pyridin-3-yl)phenyl)carbamoyl)-1H-pyrazole-3-sulfonamide]
≤ 0.5 | ≤ 0.5 | CCN(CC)CCCS(=O)(=O)NC(=O)Nc1c(-c2cccnc2)cc(F)cc1C(C)C [Example 58, 3-(Diethylamino)-N-((4-fluoro-2-isopropyl-6-(pyridin-3-yl)phenyl)carbamoyl)propane-1-sulfonamide]
≤ 0.5 | ≤ 1 | COC1(c2cc(S(=O)(=O)NC(=O)Nc3c(-c4cccnc4)cc(F)c4c3CCC4)nn2C)COC1 [Example 59, N-((7-Fluoro-5-(pyridin-3-yl)-2,3-dihydro-1H-inden-4-yl)carbamoyl)-5-(3-methoxyoxetan-3-yl)-1-methyl-1H-pyrazole-3-sulfonamide]
≤ 0.5 | ≤ 5 | CN(C)CCn1ccc(S(=O)(=O)NC(=O)Nc2c(-c3cccnc3)cc(F)c3c2CCC3)n1 [Example 62, 1-(2-(Dimethylamino)ethyl)-N-((7-fluoro-5-(pyridin-3-yl)-2,3-dihydro-1H-inden-4-yl)carbamoyl)-1H-pyrazole-3-sulfonamide]
≤ 0.5 | ≤ 0.5 | COc1cc(-c2cc(F)c3c(c2NC(=O)NS(=O)(=O)c2ccn(CCN(C)C)n2)CCC3)ccn1 [Example 63, 1-(2-(Dimethylamino)ethyl)-N-((7-fluoro-5-(2-methoxypyridin-4-yl)-2,3-dihydro-1H-inden-4-yl)carbamoyl)-1H-pyrazole-3-sulfonamide]
≤ 0.5 | ≤ 0.5 | CCn1nc(S(=O)(=O)NC(=O)Nc2c(-c3cccnc3)cc(F)c3c2CCC3)cc1CN(C)C [Example 65, 5-((Dimethylamino)methyl)-1-ethyl-N-((7-fluoro-5-(pyridin-3-yl)-2,3-dihydro-1H-inden-4-yl)carbamoyl)-1H-pyrazole-3-sulfonamide]
≤ 0.5 | ≤ 0.5 | CCn1nc(S(=O)(=O)NC(=O)Nc2c(-c3ccnc(OC)c3)cc(F)c3c2CCC3)cc1CN(C)C [Example 66, 5-((Dimethylamino)methyl)-1-ethyl-N-((7-fluoro-5-(2-methoxypyridin-4-yl)-2,3-dihydro-1H-inden-4-yl)carbamoyl)-1H-pyrazole-3-sulfonamide]
≤ 0.5 | ≤ 1 | CCn1nc(S(=O)(=O)NC(=O)Nc2c(-c3cccc(C#N)c3)ccc3c2CCC3)cc1CN(C)C [Example 68, N-((5-(3-Cyanophenyl)-2,3-dihydro-1H-inden-4-yl)carbamoyl)-5-((dimethylamino)methyl)-1-ethyl-1H-pyrazole-3-sulfonamide]
≤ 0.5 | ≤ 0.5 | COc1cc(-c2ccc3c(c2NC(=O)NS(=O)(=O)c2ccc(=O)n(C(C)C)c2)CCC3)ccn1 [Example 70, 1-Isopropyl-N-((5-(2-methoxypyridin-4-yl)-2,3-dihydro-1H-inden-4-yl)carbamoyl)-6-oxo-1,6-dihydropyridine-3-sulfonamide]
≤ 0.5 | ≤ 1 | CC(C)n1cc(S(=O)(=O)NC(=O)Nc2c(-c3ccnc(C#N)c3)ccc3c2CCC3)ccc1=O [Example 71, N-((5-(2-Cyanopyridin-4-yl)-2,3-dihydro-1H-inden-4-yl)carbamoyl)-1-isopropyl-6-oxo-1,6-dihydropyridine-3-sulfonamide, sodium salt]
≤ 0.5 | ≤ 1 | CC(C)n1cc(S(=O)(=O)NC(=O)Nc2c(-c3ccnc(C#N)c3)ccc3c2CCC3)ncc1=O [Example 72, N-((5-(2-Cyanopyridin-4-yl)-2,3-dihydro-1H-inden-4-yl)carbamoyl)-4-isopropyl-5-oxo-4,5-dihydropyrazine-2-sulfonamide, sodium salt]
≤ 0.5 | ≤ 0.5 | COc1cc(-c2ccc3c(c2NC(=O)NS(=O)(=O)c2cn(C(C)C)c(=O)cn2)CCC3)ccn1 [Example 73, 4-Isopropyl-N-((5-(2-methoxypyridin-4-yl)-2,3-dihydro-1H-inden-4-yl)carbamoyl)-5-oxo-4,5-dihydropyrazine-2-sulfonamide, partial ammonium salt]
≤ 0.5 | ≤ 0.5 | COc1cc(-c2ccc3c(c2NC(=O)NS(=O)(=O)C2CN(C(C)C)C2)CCC3)ccn1 [Example 76, 1-Isopropyl-N-((5-(2-methoxypyridin-4-yl)-2,3-dihydro-1H-inden-4-yl)carbamoyl)azetidine-3-sulfonamide]
≤ 0.5 | ≤ 1 | CC(C)N1CC(S(=O)(=O)NC(=O)Nc2c(-c3ccncc3)cc(F)c3c2CCC3)C1 [Example 77, N-((7-Fluoro-5-(pyridin-4-yl)-2,3-dihydro-1H-inden-4-yl)carbamoyl)-1-isopropylazetidine-3-sulfonamide]
≤ 0.5 | ≤ 1 | O=C(Nc1c(-c2ccncc2)cc(F)c2c1CCC2)NS(=O)(=O)C1CN(C2CCC2)C1 [Example 81, 1-Cyclobutyl-N-((7-fluoro-5-(pyridin-4-yl)-2,3-dihydro-1H-inden-4-yl)carbamoyl)azetidine-3-sulfonamide]
